Literature values, collected in patent US20210361700A1 (priority 2020, published 2021).
“Also recorded” adds a separate entry of the source. Like-named read-outs stand apart in the source and are kept apart here.

Columns and labels:
[1] = test system: pro-inflammatory cytokines, such as TNF-α, IL-6 and IL-8; conditions: acute viral respiratory infection
[2] = test system: TLR4 and NF-κB protein levels, ROS, acute tissue injury; conditions: models of lung injury
influenza vaccine = conditions: experimental models, including influenza vaccine
3CLpro of SARS-CoV = 3CLpro of SARS-CoV (Severe acute respiratory syndrome coronavirus, UniProt P0C6X7)
[3] = test system: influenza, adenovirus, Ebola, and others; conditions: high affinity, nonspecific binding to viral surface proteins
rhinovirus = rhinovirus infection in mice (COPD)
influenza [4] = conditions: animal models of influenza
[5] = test system: respiratory syndrome virus-1 vaccine; conditions: large mammal model
[6] = test system: 3C-like protease (3CLpro) activity of COVID-19
SARS-CoV ACE2 receptor = conditions: studies with SARS-CoV; listed as quercetin
COVID-19 S-protein = COVID-19 S-protein (Severe acute respiratory syndrome coronavirus 2, UniProt P0DTC2)
3CLpro of MERS = 3CLpro of MERS (Middle East respiratory syndrome-related coronavirus, UniProt K9N7C7)
[7] = test system: acute respiratory infections; conditions: N=40; P=0.004; listed as quercetin
[8] = test system: upper respiratory infection
[9] = target: Plpro protease of SARS-CoV (Severe acute respiratory syndrome coronavirus, UniProt P0C6X7)
[10] = test system: vascular endothelial function; conditions: meta-analyses of randomized controlled trials
influenza [11] = test system: influenza
T cell function = conditions: for T cell function in older adults: supplementation
strep pneumonia = conditions: old mice; by reducing neutrophil migration and inflammatory cytokines
[12] = test system: acute respiratory infections; conditions: for colds: secondary analysis, older adults
[13] = test system: hepatitis B and tetanus vaccines; conditions: for antibody titer / antibody response to vaccines: in vivo
[14] = target: RNA-dependent RNA polymerase of SARS-CoV (Severe acute respiratory syndrome coronavirus, UniProt P0C6X7)
[15] = test system: acute respiratory infections; conditions: for lower respiratory infection: zinc supplementation, older adults
[16] = test system: common cold (often caused by coronaviruses); conditions: short-term zinc supplementation at onset of symptoms; 17 RCTs pooled; 95% CI 0.81 to 2.50; listed as zinc
[17] = subset of subjects 40+ years (N=325), secondary analysis

3CLpro of MERS, sequence (K9N7C7 3248-3553 limits assumed): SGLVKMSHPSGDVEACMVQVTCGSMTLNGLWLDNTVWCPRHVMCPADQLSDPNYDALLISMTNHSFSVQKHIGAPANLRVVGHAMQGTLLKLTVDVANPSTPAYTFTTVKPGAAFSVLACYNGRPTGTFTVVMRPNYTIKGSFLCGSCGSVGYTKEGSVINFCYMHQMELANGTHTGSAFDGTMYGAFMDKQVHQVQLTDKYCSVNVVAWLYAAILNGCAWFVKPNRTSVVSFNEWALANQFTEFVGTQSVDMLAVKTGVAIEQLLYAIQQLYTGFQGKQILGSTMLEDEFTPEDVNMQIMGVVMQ

## O=C(O[C@@H]1Cc2c(O)cc(O)cc2O[C@@H]1c1cc(O)c(O)c(O)c1)c1cc(O)c(O)c(O)c1 [EGCG, epigallocatechin gallate]
[1]
  pro-inflammatory cytokines: down-regulates; also recorded: Down-regulatcs pro-
[2]
  TLR4 and NF-κB protein levels, ROS, acute tissue injury: Suppresses inflammatory
Endothelial cells
  biomarkers of endothelial dysfunction such as ICAM-1 and VCAM-1: lowers
Endothelial cells; endothelial cells
  endothelin-1 production: reduces
  nitric oxide (NO) release: induces
Endothelial cells; through effects on the Nrf2/HO-1 pathway
  excessive endothelial oxidative stress: reduces
Influenza vaccine
  immune response to vaccination: potentiated
3CLpro of SARS-CoV
  inhibition of 3CLpro of SARS-CoV: Inhibits the (3CL^pro) activity
Colds or influenza; 95% CI=0.07-0.76
  OR, clinically diagnosed influenza infection: 0.25
Colds or influenza; 95% CI=0.09-0.84
  HR, days free from influenza infection: 0.27
Colds or influenza; in vivo
  reduced clinically diagnosed influenza infection: 75%
  reduced days free from influenza infection: 73%
[3]
  infectivity of a wide range of viruses: Inhibits infectivity of a wide

## O=c1c(O)c(-c2ccc(O)c(O)c2)oc2cc(O)cc(O)c12 [Quercetin, quercetin]
rhinovirus
  cytokine storm / inflammation and lung injury: inhibits cytokine storm and reduces lung injury
Influenza [4]
  superoxide radical formation, lung pathology, overall risk of infection induced by influenza: Reduces superoxide
  viral replication and risk of acute infection: inhibits
[5]
  response to respiratory syndrome virus-1 vaccine: improves
[6]
  inhibition of 3CLpro activity of COVID-19: Inhibits the 3C-like protease
SARS-CoV ACE2 receptor
  binding to ACE2 receptor / antagonism of S-protein binding: binds
COVID-19 S-protein
  antagonist of S-protein binding to host ACE2 receptor, computer modeling: other compounds as a top
COVID-19 S-protein; listed as quercetin
  antagonist of S-protein binding to host ACE2 receptor, computer modeling: top potential antagonist
Endothelial cells; in vitro
  effects in vitro on endothelial cell pathways: several beneficial effects
3CLpro of MERS
  inhibition of 3CLpro of MERS: inhibits
[7]
  incidence of acute respiratory infections: significantly reduced
3CLpro of SARS-CoV
  inhibition of 3CLpro of SARS-CoV: inhibits
[8]; overall, N=1,002
  effect on rates of upper respiratory infections: no overall significant effect
[8]; [17]
  reduced duration of upper respiratory infection (total sick days): (−31%) in a secondary analysis
  reduced severity of upper respiratory infection (symptom severity): severity (−36%) and total sick days
[9]
  inhibition of Plpro protease of SARS-CoV: inhibits

## Vitamin E
[10]
  vascular endothelial function: improve
Influenza [11]; mouse, in vivo
  survival in viral pneumonia: increases survival
  viral load in viral lung infections: Reduces viral load in viral
Influenza [11]; viral infection, influenza
  excessive lung inflammatory responses / inflammatory cytokine production: dampens; also recorded: Reduces inflammatory
T cell function; naive T cells, but not memory T cells
  cell-dividing and IL-producing capacities of naive T cells: increased
T cell function
  T cell function in older adults: increases
Strep pneumonia
  survival from strep pneumonia infection: Increases survival from
[12]; nursing home residents
  risk of total acute respiratory infections: reduced the risk
[12]
  colds: Decreased colds in older adults
[12]; listed as vitamin E
  colds: reduced the risk
[12]; subset of nursing home residents with polymorphism
  pneumonia: Decreased pneumonia in a subset
[13]
  in vivo delayed-type hypersensitivity skin response: improves
  antibody titer / antibody response to vaccines: increase; also recorded: improves

## zinc
inflammation
  inflammation: Reduces inflammation.
[14]
  inhibition of RNA-dependent RNA polymerase: Inhibits the RNA-dependent
T cell function
  T cell function in older adults: Increases T cell function in older
T cell function; listed as zinc
  T cell function in older adults: increases
[15]; double-blind, placebo controlled trial
  acute respiratory infections in the elderly: reduced
[15]
  lower respiratory infection: adults and reduces lower
[15]; listed as zinc
  lower respiratory infection: reduces
[13]
  antibody titer / antibody response to vaccines: increase; also recorded: restores
[16]
  reduced days of illness: -1.65 days
